Where “and” joins values, the source holds several entries; their conditions need not be identical. Identical values can stand only once.
Assays:
CNS cell [1] = test: Growth inhibitory concentration dissolved in DMSO against human CNS cell line at 10E-4 M concentration; assay type: functional
Colon cell [2] = test: Total growth inhibition of human Colon cell line at 10E-4 M concentration; assay type: functional; parameters: unit not given here
NSCLC [3] = test: Total growth inhibition of human NSCLC cell line at 10E-4 M concentration; assay type: functional
Breast carcinoma cell [4] = test: Total growth inhibition of human Breast cell line at 10E-4 M concentration; assay type: functional
[5] = system: Panel NCI-60 (60 carcinoma cell lines); test: Total growth inhibition of human MG-MID cell line at 10E-4 M concentration; assay type: functional
Ovarian carcinoma cell [6] = test: Total growth inhibition of human Ovarian cell line at 10E-4 M concentration; assay type: functional
Melanoma cell [7] = test: Total growth inhibition of human Melanoma cell line at 10E-4 M concentration; assay type: functional
Prostate cell [8] = test: Total growth inhibition of human Prostate cell line at 10E-4 M concentration; assay type: functional
Prostate cell [9] = test: Growth inhibitory concentration dissolved in DMSO against human Prostate cell line at 10E-4 M concentration; assay type: functional
Ovarian carcinoma cell [10] = test: Growth inhibitory concentration dissolved in DMSO against human Ovarian cell line at 10E-4 M concentration; assay type: functional
Melanoma cell [11] = test: Growth inhibitory concentration dissolved in DMSO against human Melanoma cell line at 10E-4 M concentration; assay type: functional
Colon cell [12] = test: Growth inhibitory concentration dissolved in DMSO against human Colon cell line at 10E-4 M concentration; assay type: functional
NSCLC [13] = test: Growth inhibitory concentration dissolved in DMSO against human NSCLC cell line at 10E-4 M concentration; assay type: functional; parameters: unit not given here
Renal cell [14] = test: Growth inhibitory concentration dissolved in DMSO against human Renal cell line at 10E-4 M concentration; assay type: functional; parameters: unit not given here
Breast carcinoma cell [15] = test: Growth inhibitory concentration dissolved in DMSO against human Breast cell line at 10E-4 M concentration; assay type: functional
[16] = system: Panel NCI-60 (60 carcinoma cell lines); test: Growth inhibitory concentration dissolved in DMSO against human MG-MID cell line at 10E-4 M concentration; assay type: functional
CNS cell [17] = test: Cytotoxic effect dissolved in DMSO against CNS cell line at 10E-4 M concentration; assay type: functional, Homo sapiens
Colon cell [18] = test: Cytotoxic effect dissolved in DMSO against Colon cell line at 10E-4 M concentration; assay type: functional, Homo sapiens
NSCLC [19] = test: Cytotoxic effect dissolved in DMSO against NSCLC cell line at 10E-4 M concentration; assay type: functional, Homo sapiens
HT-29 [20] = test: Percentage of Cells after administration of compound dissolved in DMSO (10e-4 M) towards colon adenocarcinoma cell line HT-29 in G2/M Phase after 24 Hours of Treatment [control = 10]; assay type: functional, Homo sapiens
HT-29 [21] = test: Percentage of Cells after administration of compound dissolved in DMSO (10e-5 M) towards colon adenocarcinoma cell line HT-29 in G2/M Phase after 24 Hours of Treatment [control = 10]; assay type: functional, Homo sapiens
HT-29 [22] = test: Percentage of Cells after administration of compound dissolved in DMSO (10e-6 M) towards colon adenocarcinoma cell line HT-29 in G2/M Phase after 24 Hours of Treatment [control = 10]; assay type: functional, Homo sapiens
Renal cell [23] = test: Cytotoxic effect dissolved in DMSO against Renal cell line at 10E-4 M concentration; assay type: functional, Homo sapiens
Breast carcinoma cell [24] = test: Cytotoxic effect dissolved in DMSO against Breast cell line at 10E-4 M concentration; assay type: functional, Homo sapiens
[25] = system: Panel NCI-60 (60 carcinoma cell lines); test: Cytotoxic effect dissolved in DMSO against MG-MID cell line at 10E-4 M concentration; assay type: functional, Homo sapiens
Ovarian carcinoma cell [26] = test: Cytotoxic effect dissolved in DMSO against Ovarian cell line at 10E-4 M concentration; assay type: functional, Homo sapiens
Melanoma cell [27] = test: Cytotoxic effect dissolved in DMSO against Melanoma cell line at 10E-4 M concentration; assay type: functional, Homo sapiens
HT-29 [28] = test: Percentage of Cells after administration of compound dissolved in DMSO (10e-7M) towards colon adenocarcinoma cell line HT-29 in G2/M Phase after 24 Hours of Treatment [control = 10]; assay type: functional, Homo sapiens
HT-29 [29] = test: Percentage of Cells after administration of compound dissolved in DMSO (10e-8 M) towards colon adenocarcinoma cell line HT-29 in G2/M Phase after 24 Hours of Treatment [control = 10]; assay type: functional, Homo sapiens
Prostate cell [30] = test: Cytotoxic effect dissolved in DMSO against Prostate cell line at 10E-4 M concentration; assay type: functional, Homo sapiens
CNS cell [31] = test: Growth inhibitory concentration dissolved in DMSO against human CNS cell line at 10E-3 M concentration; assay type: functional
Colon cell [32] = test: Growth inhibitory concentration dissolved in DMSO against human Colon cell line at 10E-3 M concentration; assay type: functional
CNS cell [33] = test: Total growth inhibition of human CNS cell line at 10E-3 M concentration; assay type: functional
Colon cell [34] = test: Total growth inhibition of human Colon cell line at 10E-3 M concentration; assay type: functional
NSCLC [35] = test: Total growth inhibition of human NSCLC cell line at 10E-3 M concentration; assay type: functional
Renal cell [36] = test: Total growth inhibition of human Renal cell line at 10E-3 M concentration; assay type: functional
[37] = system: Panel NCI-60 (60 carcinoma cell lines); test: Total growth inhibition of human MG-MID cell line at 10E-3 M concentration; assay type: functional
Breast carcinoma cell [38] = test: Total growth inhibition of human Breast cell line at 10E-3 M concentration; assay type: functional
Leukemia cell [39] = test: Total growth inhibition of human Leukemia cell line at 10E-3 M concentration; assay type: functional
Melanoma cell [40] = test: Total growth inhibition of human Melanoma cell line at 10E-3 M concentration; assay type: functional
Ovarian carcinoma cell [41] = test: Total growth inhibition of human Ovarian cell line at 10E-3 M concentration; assay type: functional
Prostate cell [42] = test: Total growth inhibition of human Prostate cell line at 10E-3 M concentration; assay type: functional
Leukemia cell [43] = test: Growth inhibitory concentration dissolved in DMSO against human leukemia cell line at 10E-3 M concentration; assay type: functional
Melanoma cell [44] = test: Growth inhibitory concentration dissolved in DMSO against human Melanoma cell line at 10E-3 M concentration; assay type: functional
Prostate cell [45] = test: Growth inhibitory concentration dissolved in DMSO against human Prostate cell line at 10E-3 M concentration; assay type: functional
NSCLC [46] = test: Growth inhibitory concentration dissolved in DMSO against human NSCLC cell line at 10E-3 M concentration; assay type: functional
Renal cell [47] = test: Growth inhibitory concentration dissolved in DMSO against human Renal cell line at 10E-3 M concentration; assay type: functional
Breast carcinoma cell [48] = test: Growth inhibitory concentration dissolved in DMSO against human Breast cell line at 10E-3 M concentration; assay type: functional
[49] = system: Panel NCI-60 (60 carcinoma cell lines); test: Growth inhibitory concentration dissolved in DMSO against human MG-MID cell line at 10E-3 M concentration; assay type: functional
Ovarian carcinoma cell [50] = test: Growth inhibitory concentration dissolved in DMSO against human Ovarian cell line at 10E-3 M concentration; assay type: functional
CNS cell [51] = test: Cytotoxic effect dissolved in DMSO against CNS cell line at 10E-3 M concentration; assay type: functional, Homo sapiens
Colon cell [52] = test: Cytotoxic effect dissolved in DMSO against Colon cell line at 10E-3 M concentration; assay type: functional, Homo sapiens
NSCLC [53] = test: Cytotoxic effect dissolved in DMSO against NSCLC cell line at 10E-3 M concentration; assay type: functional, Homo sapiens
Breast carcinoma cell [54] = test: Cytotoxic effect dissolved in DMSO against Breast cell line at 10E-3 M concentration; assay type: functional, Homo sapiens
[55] = system: Panel NCI-60 (60 carcinoma cell lines); test: Cytotoxic effect dissolved in DMSO against MG-MID cell line at 10E-3 M concentration; assay type: functional, Homo sapiens
Ovarian carcinoma cell [56] = test: Cytotoxic effect dissolved in DMSO against Ovarian cell line at 10E-3 M concentration; assay type: functional, Homo sapiens
Leukemia cell [57] = test: Cytotoxic effect dissolved in DMSO against Leukemia cell line at 10E-3 M concentration; assay type: functional, Homo sapiens
Melanoma cell [58] = test: Cytotoxic effect dissolved in DMSO against Melanoma cell line at 10E-3 M concentration; assay type: functional, Homo sapiens
Prostate cell [59] = test: Cytotoxic effect dissolved in DMSO against Prostate cell line at 10E-3 M concentration; assay type: functional, Homo sapiens
Renal cell [60] = test: Cytotoxic effect dissolved in DMSO against Renal cell line at 10E-3 M concentration; assay type: functional, Homo sapiens

Cc1cn2c(/C=C3/C(=O)Nc4ccc(Cl)cc43)c(C)nc2s1
pGI50 (-log GI50, M) (CNS cell [1]): 6.13 | TGI (Colon cell [2]): 5.06 and 5.08 | TGI (NSCLC [3]): 4.65 | TGI (Breast carcinoma cell [4]): 4.85 | TGI [5]: 4.81 | TGI (Ovarian carcinoma cell [6]): 4.82 | TGI (Melanoma cell [7]): 4.6 | TGI (Prostate cell [8]): 5.62 | pGI50 (negative log molar GI50) (Prostate cell [9]): 6.98 | pGI50 (negative log of GI50 in M) (Ovarian carcinoma cell [10]): 5.91 | pGI50 (-log molar GI50) (Melanoma cell [11]): 6.21 | pGI50 (negative log of molar GI50) (Colon cell [12]): 6.72 | GI50 (NSCLC [13]): 6.17 | GI50 (Renal cell [14]): 6.54 | pGI50 (-log GI50, M) (Breast carcinoma cell [15]): 6.51 | GI50 [16]: -6.42 | LC50 (CNS cell [17]): 4.16 | LC50 (Colon cell [18]): 4.34 | LC50 (NSCLC [19]): 4.16 | Activity (HT-29 [20]): 61.6% | Activity (HT-29 [21]): 86.2% | Activity (HT-29 [22]): 72% | LC50 (Renal cell [23]): 4.06 | LC50 (Breast carcinoma cell [24]): 4.02 | LC50 [25]: 4.15 | LC50 (Ovarian carcinoma cell [26]): 4.3 | LC50 (Melanoma cell [27]): 4.06 | Activity (HT-29 [28]): 9.7% | Activity (HT-29 [29]): 11.1% | LC50 (Prostate cell [30]): 4.36

CC[C@]1(O)C[C@H]2CN(CCc3c([nH]c4ccccc34)[C@@](C(=O)OC)(c3cc4c(cc3OC)N(C=O)[C@H]3[C@@](O)(C(=O)OC)[C@H](OC(C)=O)[C@]5(CC)C=CCN6CC[C@]43[C@@H]65)C2)C1.O=S(=O)(O)O [VINCRISTINE SULFATE]
pGI50 (CNS cell [31]): 6.9 | pGI50 (Colon cell [32]): 7 | pTGI (CNS cell [33]): 5.2 | pTGI (Colon cell [34]): 5.4 | pTGI (NSCLC [35]): 4.8 | pTGI (Renal cell [36]): 4.7 | pTGI [37]: 5 | pTGI (Breast carcinoma cell [38]): 5.1 | pTGI (Leukemia cell [39]): 4.8 | pTGI (Melanoma cell [40]): 5.1 | pTGI (Ovarian carcinoma cell [41]): 4.7 | pTGI (Prostate cell [42]): 5.2 | pGI50 (Leukemia cell [43]): 7 | pGI50 (Melanoma cell [44]): 6.8 | pGI50 (Prostate cell [45]): 6.9 | pGI50 (NSCLC [46]): 6.6 | pGI50 (Renal cell [47]): 6.5 | pGI50 (Breast carcinoma cell [48]): 6.5 | pGI50 [49]: 6.7 | pGI50 (Ovarian carcinoma cell [50]): 6.5 | LC50 (CNS cell [51]): 3.7 | LC50 (Colon cell [52]): 4.1 | LC50 (NSCLC [53]): 3.6 | LC50 (Breast carcinoma cell [54]): 3.5 | LC50 [55]: 3.6 | LC50 (Ovarian carcinoma cell [56]): 3.5 | LC50 (Leukemia cell [57]): 3.2 | LC50 (Melanoma cell [58]): 3.6 | LC50 (Prostate cell [59]): 3.5 | LC50 (Renal cell [60]): 3.6

Source: ChEMBL document CHEMBL1141167, “Antitumor activity of new substituted 3-(5-imidazo[2,1-b]thiazolylmethylene)-2-indolinones and study of their effect on the cell cycle” (2005)
